14 molecules from patent US10221167B2, “Hydroxyalkylamine- and hydroxycycloalkylamine-substituted diamine-arylsulfonamide compounds with selective activity in voltage-gated sodium channels” (Merck Sharp & Dohme Corp., priority 2015, dated 2019) can be followed below.

Assay [1] concerns the target T1, human Nav1.7 channels stably expressed in HEK 293 cells (Homo sapiens, UniProt Q15858).
T1 construct: expressed in transfected cells
The experiment in a line: IonWorks Quattro automated patch-clamp, state-dependent inhibition of Nav1.7. It is filed as cell-based. The conditions noted are these: inactivated state block, double-pulse protocol, holding -100 mV, read-out: potency for the Nav 1.7 sodium ion channel (as measured by IonWorks). On the procedure: (§1) Compounds were tested on human Nav1.7 and Nav1.5 channels stably expressed in HEK 293 cells. […] Cells were sealed on a planar substrate using the Population Patch Plate (PPC) technology. Electrical access was obtained using both nystatin and amphotericin. A double-pulse protocol was used for the determination of IC50 values for inactivated state block. Nav1.7 and Nav1.5 expressing cells were voltage clamped at −100 mV and −110 mV, respectively. A depolarizing prepulse to −10 mV (Nav1.7) or −30 mV (Nav1.5) for 1000 ms followed by a 10 ms repolarization to −100 mV (Nav1.7) or −110 mV (Nav1.5) was given to generate fractional channel inactivation of ˜50%, followed by a 10 ms test pulse to −10 mV (Nav1.7) or −30 mV (Nav1.5) to measure peak current in control conditions and after compound addition. The following recording solutions were used (mM). External: 150 NaCl, 2 CaCl2, 5 KCl, 1 Mg Cl2, 10 HEPES, 12 Dextrose; internal: 120 CsF, 30 CsCl, 10 EGTA, 5 HEPES, 5 NaF, 2 MgCl2.
(§2) For all electrophysiology experiments, offline analysis was used to determine percent inhibition as a function of drug concentration. IC50 values were determined by fitting to the Hill equation.
(§3) The various compounds in Examples 1 through 4 and Tables 1 through 3 exemplified above were assayed for activity and selectivity using the foregoing IonWorks® technique. The results are reported in the following paragraph in a format expressing the identification of the compound with reference Example and compound (e.g. Ex 1-1 is Example 1, compound 1) followed by the observed potency in nM and the ratio of Nav1.7 potency:Nav 1.5 potency as described here. […]

Assay [2] addresses T2, human Nav1.5 channels stably expressed in HEK 293 cells (Homo sapiens, UniProt Q14524).
T2 construct: expressed in transfected cells
The assay is described as follows: IonWorks Quattro automated patch-clamp, Nav1.5 (selectivity ratio versus Nav1.7). The following applies: selectivity for Nav1.7 over Nav1.5, inactivated state block. Format: cell-based. As for the experimental part: as §1, §2, §3

Structures are written as SMILES.

T1 sequence (Q15858 whole entry): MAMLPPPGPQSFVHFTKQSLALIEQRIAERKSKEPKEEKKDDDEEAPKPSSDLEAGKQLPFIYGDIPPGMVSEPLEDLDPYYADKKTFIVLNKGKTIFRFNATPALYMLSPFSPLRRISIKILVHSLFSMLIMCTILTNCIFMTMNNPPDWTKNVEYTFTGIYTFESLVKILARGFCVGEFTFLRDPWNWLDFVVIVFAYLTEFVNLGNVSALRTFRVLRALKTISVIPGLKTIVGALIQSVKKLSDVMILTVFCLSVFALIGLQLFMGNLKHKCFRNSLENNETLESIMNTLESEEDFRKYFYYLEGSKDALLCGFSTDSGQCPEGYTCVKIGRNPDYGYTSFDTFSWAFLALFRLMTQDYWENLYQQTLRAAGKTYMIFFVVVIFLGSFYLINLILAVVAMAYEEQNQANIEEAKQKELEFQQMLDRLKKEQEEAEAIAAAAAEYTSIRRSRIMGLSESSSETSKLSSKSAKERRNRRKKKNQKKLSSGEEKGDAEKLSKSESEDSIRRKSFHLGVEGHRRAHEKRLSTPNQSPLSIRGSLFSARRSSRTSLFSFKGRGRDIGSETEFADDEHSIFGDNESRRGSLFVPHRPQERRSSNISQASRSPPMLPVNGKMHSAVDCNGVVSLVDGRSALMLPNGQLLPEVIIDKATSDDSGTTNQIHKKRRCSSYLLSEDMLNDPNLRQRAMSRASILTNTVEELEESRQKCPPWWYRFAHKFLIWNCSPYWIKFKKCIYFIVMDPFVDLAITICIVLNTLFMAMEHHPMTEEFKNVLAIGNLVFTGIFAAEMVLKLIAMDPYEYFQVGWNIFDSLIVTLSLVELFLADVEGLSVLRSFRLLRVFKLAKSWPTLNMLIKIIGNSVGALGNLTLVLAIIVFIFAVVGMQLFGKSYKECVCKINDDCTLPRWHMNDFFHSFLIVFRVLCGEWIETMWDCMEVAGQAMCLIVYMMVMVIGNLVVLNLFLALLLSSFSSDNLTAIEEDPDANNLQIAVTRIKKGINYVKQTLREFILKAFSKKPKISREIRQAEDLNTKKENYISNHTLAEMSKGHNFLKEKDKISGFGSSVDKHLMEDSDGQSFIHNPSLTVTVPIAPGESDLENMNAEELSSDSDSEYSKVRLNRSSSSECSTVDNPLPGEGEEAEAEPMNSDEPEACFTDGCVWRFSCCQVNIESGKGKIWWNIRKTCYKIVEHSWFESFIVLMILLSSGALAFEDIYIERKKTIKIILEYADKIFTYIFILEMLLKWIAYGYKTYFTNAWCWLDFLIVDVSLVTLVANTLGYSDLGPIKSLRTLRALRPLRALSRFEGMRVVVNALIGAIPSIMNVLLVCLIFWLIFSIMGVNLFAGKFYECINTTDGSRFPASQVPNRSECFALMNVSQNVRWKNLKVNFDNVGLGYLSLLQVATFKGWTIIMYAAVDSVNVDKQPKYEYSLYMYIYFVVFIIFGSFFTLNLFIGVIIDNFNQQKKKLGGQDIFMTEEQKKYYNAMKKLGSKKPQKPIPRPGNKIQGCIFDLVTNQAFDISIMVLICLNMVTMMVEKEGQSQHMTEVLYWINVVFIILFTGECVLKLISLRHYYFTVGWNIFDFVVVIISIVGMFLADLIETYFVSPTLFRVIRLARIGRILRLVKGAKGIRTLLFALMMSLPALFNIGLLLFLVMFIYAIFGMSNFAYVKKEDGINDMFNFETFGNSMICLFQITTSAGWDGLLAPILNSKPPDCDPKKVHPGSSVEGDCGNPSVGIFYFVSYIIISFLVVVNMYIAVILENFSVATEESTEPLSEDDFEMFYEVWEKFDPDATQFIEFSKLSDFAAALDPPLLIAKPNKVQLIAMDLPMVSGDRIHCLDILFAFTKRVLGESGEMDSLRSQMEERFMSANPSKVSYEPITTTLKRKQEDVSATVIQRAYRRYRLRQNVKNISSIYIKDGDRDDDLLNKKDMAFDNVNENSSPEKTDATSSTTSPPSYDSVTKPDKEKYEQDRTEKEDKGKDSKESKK
T2 sequence (Q14524 whole entry): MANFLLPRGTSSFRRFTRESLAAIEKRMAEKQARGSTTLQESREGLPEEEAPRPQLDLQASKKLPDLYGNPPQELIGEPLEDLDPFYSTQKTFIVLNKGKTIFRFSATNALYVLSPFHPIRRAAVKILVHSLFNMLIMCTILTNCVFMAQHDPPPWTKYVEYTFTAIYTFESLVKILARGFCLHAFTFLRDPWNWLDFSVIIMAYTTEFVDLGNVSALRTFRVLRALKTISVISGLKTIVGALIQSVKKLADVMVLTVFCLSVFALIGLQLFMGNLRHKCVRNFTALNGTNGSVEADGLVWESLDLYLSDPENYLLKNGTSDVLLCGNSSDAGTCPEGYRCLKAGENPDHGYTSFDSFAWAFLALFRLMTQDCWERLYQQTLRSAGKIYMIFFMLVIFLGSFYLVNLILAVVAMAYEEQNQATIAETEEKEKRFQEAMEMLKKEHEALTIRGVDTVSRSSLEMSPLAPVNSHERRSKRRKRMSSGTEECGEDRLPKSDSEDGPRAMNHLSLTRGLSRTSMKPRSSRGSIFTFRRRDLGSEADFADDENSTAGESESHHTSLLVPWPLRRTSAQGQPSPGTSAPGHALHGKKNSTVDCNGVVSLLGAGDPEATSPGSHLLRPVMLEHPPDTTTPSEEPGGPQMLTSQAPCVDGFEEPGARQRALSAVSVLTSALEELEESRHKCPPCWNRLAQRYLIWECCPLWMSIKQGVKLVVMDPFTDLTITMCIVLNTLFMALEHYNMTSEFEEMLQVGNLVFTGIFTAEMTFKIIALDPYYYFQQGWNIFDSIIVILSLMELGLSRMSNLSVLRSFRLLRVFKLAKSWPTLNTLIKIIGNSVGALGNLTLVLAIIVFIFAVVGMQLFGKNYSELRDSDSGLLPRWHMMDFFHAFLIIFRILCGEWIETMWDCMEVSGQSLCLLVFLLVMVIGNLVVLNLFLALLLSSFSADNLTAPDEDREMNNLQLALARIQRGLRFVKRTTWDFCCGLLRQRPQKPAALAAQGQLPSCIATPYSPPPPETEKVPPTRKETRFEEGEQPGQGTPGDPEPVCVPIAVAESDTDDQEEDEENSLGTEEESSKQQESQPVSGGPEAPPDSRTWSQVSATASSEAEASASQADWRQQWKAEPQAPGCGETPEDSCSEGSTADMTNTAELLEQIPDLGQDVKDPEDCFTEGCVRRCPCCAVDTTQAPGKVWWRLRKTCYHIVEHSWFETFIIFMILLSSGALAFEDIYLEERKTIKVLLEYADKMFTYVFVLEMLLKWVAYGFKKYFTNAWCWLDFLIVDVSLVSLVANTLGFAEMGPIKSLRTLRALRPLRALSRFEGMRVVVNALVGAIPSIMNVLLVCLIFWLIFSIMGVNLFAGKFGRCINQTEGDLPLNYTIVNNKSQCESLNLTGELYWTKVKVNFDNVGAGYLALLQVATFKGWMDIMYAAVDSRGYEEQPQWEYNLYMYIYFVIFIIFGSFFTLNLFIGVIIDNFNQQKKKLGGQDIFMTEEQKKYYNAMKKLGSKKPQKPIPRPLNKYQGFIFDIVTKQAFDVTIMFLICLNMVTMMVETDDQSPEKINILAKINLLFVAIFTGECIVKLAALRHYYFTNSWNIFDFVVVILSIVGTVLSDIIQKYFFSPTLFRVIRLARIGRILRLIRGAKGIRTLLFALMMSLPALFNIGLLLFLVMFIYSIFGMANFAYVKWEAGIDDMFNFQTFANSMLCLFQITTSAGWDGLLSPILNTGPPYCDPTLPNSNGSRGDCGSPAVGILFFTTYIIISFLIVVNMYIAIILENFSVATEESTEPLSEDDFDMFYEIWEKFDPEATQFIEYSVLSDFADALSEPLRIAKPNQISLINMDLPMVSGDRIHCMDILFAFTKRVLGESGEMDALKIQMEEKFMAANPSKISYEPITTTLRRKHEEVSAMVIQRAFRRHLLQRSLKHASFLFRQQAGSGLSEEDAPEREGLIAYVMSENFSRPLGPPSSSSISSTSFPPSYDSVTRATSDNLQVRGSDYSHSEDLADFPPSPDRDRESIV

On to `NCC1(O)CN(CCCCNc2cc(F)c(S(=O)(=O)Nc3ncns3)cc2Br)C1` [EX 1-11, 4-((4-(3-(aminomethyl)-3-hydroxyazetidin-1-yl)butyl)amino)-5-bromo-2-fluoro-N-(1,2,4-thiadiazol-5-yl)benzenesulfonamide], for which, in assay [1], the IC50 was 6.6 nM. For the same molecule, the “ratio of Nav1.7 potency:Nav 1.5 potency” value in assay [2] is not below 5000.

Consider `O=S(=O)(Nc1ncns1)c1cc(Cl)c(NCCCCNCC2(O)CNC2)cc1F` [EX 2-1, 5-chloro-2-fluoro-4-[(4-{[(3-hydroxyazetidin-3-yl)methyl]amino}butyl)amino]-N-1,2,4-thiadiazol-5-ylbenzenesulfonamide], for which the IC50 in assay [1] was found to be 16 nM. For the same molecule, in assay [2], the “ratio of Nav1.7 potency:Nav 1.5 potency” value is not below 2063.

For `O=S(=O)(Nc1ncns1)c1cc(Cl)c(NCCCCNCCNCCO)cc1F` [EX 2-4, 5-chloro-2-fluoro-4-{[4-({2-[(2-hydroxyethyl)amino]ethyl}amino)butyl]amino}-N-1,2,4-thiadiazol-5-ylbenzenesulfonamide], the IC50 in assay [1] was found to be 35 nM. Also, the “ratio of Nav1.7 potency:Nav 1.5 potency” value in assay [2] is on record as not below 943.

On to `O=S(=O)(Nc1ncc(F)s1)c1cc(Cl)c(NCCCCNCC2(O)CNC2)cc1F` [EX 2-6, 5-chloro-2-fluoro-N-(5-fluoro-1,3-thiazol-2-yl)-4-[(4-{[(3-hydroxyazetidin-3-yl)methyl]amino}butyl)amino] benzenesulfonamide], for which, in assay [1], the IC50 turned out to be 14 nM. Also, in assay [2], the “ratio of Nav1.7 potency:Nav 1.5 potency” value is not below 2357.

With `O=S(=O)(Nc1ncc(F)s1)c1cc(Cl)c(NCCCCNCCNCCO)cc1F` [EX 2-9, 5-chloro-2-fluoro-N-(5-fluoro-1,3-thiazol-2-yl)-4-{[4-({2-[(2-hydroxyethyl)amino]ethyl}amino)butyl]amino} benzenesulfonamide], the IC50 in assay [1] turned out to be 29 nM. Besides, the “ratio of Nav1.7 potency:Nav 1.5 potency” value in assay [2] was not below 1138.

As for `O=S(=O)(Nc1ncc(F)s1)c1cc(Cl)c(NCCCCN[C@H]2CNC[C@@H]2O)cc1F` [EX 2-16, 5-chloro-2-fluoro-N-(5-fluoro-1,3-thiazol-2-yl)-4-[(4-{[(3S,4S)-4-hydroxypyrrolidin-3-yl]amino}butyl)amino] benzenesulfonamide], the IC50 in assay [1] is 32 nM. Also, the “ratio of Nav1.7 potency:Nav 1.5 potency” value in assay [2] is recorded as not below 1031.

In the case of `O=S(=O)(Nc1ncc(F)s1)c1cc(Cl)c(NCCCCNC[C@@H]2C[C@H](O)CN2)cc1F` [EX 2-21, 5-chloro-2-fluoro-N-(5-fluoro-1,3-thiazol-2-yl)-4-{[4-({[(2S,4S)-4-hydroxypyrrolidin-2-yl]methyl}amino)butyl]amino} benzenesulfonamide], in assay [1], the IC50 came out at 32 nM. Further, the “ratio of Nav1.7 potency:Nav 1.5 potency” value in assay [2] was not below 344.

Regarding `O=S(=O)(Nc1ncc(F)s1)c1cc(Cl)c(NCCCCNC[C@@H]2C[C@@H](O)CN2)cc1F` [EX 2-22, 5-chloro-2-fluoro-N-(5-fluoro-1,3-thiazol-2-yl)-4-{[4-({[(2S,4R)-4-hydroxypyrrolidin-2-yl]methyl}amino)butyl]amino} benzenesulfonamide], the IC50 in assay [1] stood at 35 nM. Also, the “ratio of Nav1.7 potency:Nav 1.5 potency” value in assay [2] is not below 942.

As for `NC[C@@H](CO)NCCCCNc1cc(F)c(S(=O)(=O)Nc2ncc(F)s2)cc1Cl` [EX 2-36, 4-[(4-{[(1S)-2-amino-1-(hydroxymethyl)ethyl]amino}butyl)amino]-5-chloro-2-fluoro-N-(5-fiuoro-1,3-thiazol-2-yl)benzenesutfonamide], the IC50 in assay [1] stood at 24 nM. For the same molecule, the “ratio of Nav1.7 potency:Nav 1.5 potency” value in assay [2] is not below 1375.

Regarding `NC[C@@H](CO)NCCCCNc1cc(F)c(S(=O)(=O)Nc2ncns2)cc1Cl` [EX 2-37, 4-[(4-{[(1S)-2-amino-1-(hydroxymethyl)ethyl]amino}butyl)amino]-5-chloro-2-fluoro-N-1,2,4-thiadiazol-5-ylbenzenesulfonamide], the IC50 in assay [1] was found to be 27 nM. The “ratio of Nav1.7 potency:Nav 1.5 potency” value in assay [2] was not below 1222.

Turning to `NC[C@H](CO)NCCCCNc1cc(F)c(S(=O)(=O)Nc2nccs2)cc1Cl` [EX 2-39, 4-[(4-{[(1R)-2-amino-1-(hydroxymethyl)ethyl)amino}butyl)amino]-5-chloro-2-fluoro-N-1,3-thiazol-2-ylbenzenesulfonamide], the IC50 in assay [1] came out at 60 nM. Also, the “ratio of Nav1.7 potency:Nav 1.5 potency” value in assay [2] is not below 550.

Regarding `NC[C@H](CO)NCCCCNc1cc(F)c(S(=O)(=O)Nc2ncns2)cc1Cl` [EX 2-41], the IC50 in assay [1] was found to be 29 nM. The “ratio of Nav1.7 potency:Nav 1.5 potency” value in assay [2] is recorded as not below 655.

For `O=S(=O)(Nc1ncns1)c1cc(Br)c(NCCCCN[C@@H]2CNC[C@H]2O)cc1F` [EX 2-44, 5-bromo-2-fluoro-4-((4-(((3R,4R)-4-hydroxypyrrolidin-3-yl)amino)butyl)amino)-N-(1,2,4-thiadiazol-5-yl)benzenesulfonamide], in assay [1], the IC50 stood at 25 nM. Further, the “ratio of Nav1.7 potency:Nav 1.5 potency” value in assay [2] is on record as not below 1300.

With `CC1(O)CN[C@H](CNCCCCNc2cc(F)c(S(=O)(=O)Nc3nccs3)cc2Cl)C1` (stereo partly drawn) [EX 3-1, 5-chloro-2-fluoro-4-((4-((((2S)-4-hydroxy-4-methylpyrrolidin-2-yl)methyl)amino)butyl)amino)-N-(thiazol-2-yl)benzenesulfonamide], the IC50 in assay [1] was 100 nM. The “ratio of Nav1.7 potency:Nav 1.5 potency” value in assay [2] is not below 330.
